How the values were obtained:
Format in all cases: binding
[1] = target: T1, panel of 442 kinases (Homo sapiens, UniProt O75716); conditions: kinase STK16; compound concentration 10 µM
T1 construct: purchased KINOMEscan
Text: (§1) We assessed the selectivity of members of this scaffold using the KINOMEscan methodology across a near comprehensive panel of 442 kinases [[18,27]].

[2] = target: T2, panel of 442 kinases (Homo sapiens, UniProt Q13177); conditions: Compound Concentration 10 µM
T2 construct: purchased KINOMEscan
Text: as §1

[3] = target: T3, panel of 442 kinases (Homo sapiens, UniProt Q16288); conditions: kinase TRKC; compound concentration 10 µM
T3 construct: purchased KINOMEscan
Text: as §1

T1 sequence (O75716 whole entry): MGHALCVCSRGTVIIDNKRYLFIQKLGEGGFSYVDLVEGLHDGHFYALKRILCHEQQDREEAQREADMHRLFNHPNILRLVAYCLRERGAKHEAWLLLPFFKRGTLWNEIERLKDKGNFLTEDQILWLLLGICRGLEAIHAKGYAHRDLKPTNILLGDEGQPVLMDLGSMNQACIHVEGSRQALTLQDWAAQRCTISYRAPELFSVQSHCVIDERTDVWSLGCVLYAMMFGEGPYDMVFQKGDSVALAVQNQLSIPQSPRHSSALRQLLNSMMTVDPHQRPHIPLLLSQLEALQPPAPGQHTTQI
T3 sequence (Q16288 32-839): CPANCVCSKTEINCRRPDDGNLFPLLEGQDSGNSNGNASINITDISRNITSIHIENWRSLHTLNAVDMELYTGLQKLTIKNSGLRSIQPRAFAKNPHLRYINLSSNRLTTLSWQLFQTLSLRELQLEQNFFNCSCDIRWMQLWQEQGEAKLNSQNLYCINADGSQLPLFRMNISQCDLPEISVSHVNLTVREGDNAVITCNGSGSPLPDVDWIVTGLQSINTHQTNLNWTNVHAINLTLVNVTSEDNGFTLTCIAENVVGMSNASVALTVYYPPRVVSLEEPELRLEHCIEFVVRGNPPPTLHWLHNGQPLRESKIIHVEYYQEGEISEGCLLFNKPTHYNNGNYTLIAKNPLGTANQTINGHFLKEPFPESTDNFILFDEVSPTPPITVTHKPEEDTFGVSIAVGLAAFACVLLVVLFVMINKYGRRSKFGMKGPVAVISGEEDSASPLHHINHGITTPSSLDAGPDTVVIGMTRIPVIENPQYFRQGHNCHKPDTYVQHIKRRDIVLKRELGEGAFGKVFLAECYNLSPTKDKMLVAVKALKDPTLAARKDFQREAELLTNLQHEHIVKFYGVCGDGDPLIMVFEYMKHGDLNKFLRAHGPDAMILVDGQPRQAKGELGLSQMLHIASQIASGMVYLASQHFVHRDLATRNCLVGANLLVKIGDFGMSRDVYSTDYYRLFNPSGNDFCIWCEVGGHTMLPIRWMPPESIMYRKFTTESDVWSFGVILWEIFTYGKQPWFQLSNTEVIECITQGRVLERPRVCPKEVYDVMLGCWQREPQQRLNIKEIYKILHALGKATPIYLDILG
T2 sequence (Q13177 whole entry): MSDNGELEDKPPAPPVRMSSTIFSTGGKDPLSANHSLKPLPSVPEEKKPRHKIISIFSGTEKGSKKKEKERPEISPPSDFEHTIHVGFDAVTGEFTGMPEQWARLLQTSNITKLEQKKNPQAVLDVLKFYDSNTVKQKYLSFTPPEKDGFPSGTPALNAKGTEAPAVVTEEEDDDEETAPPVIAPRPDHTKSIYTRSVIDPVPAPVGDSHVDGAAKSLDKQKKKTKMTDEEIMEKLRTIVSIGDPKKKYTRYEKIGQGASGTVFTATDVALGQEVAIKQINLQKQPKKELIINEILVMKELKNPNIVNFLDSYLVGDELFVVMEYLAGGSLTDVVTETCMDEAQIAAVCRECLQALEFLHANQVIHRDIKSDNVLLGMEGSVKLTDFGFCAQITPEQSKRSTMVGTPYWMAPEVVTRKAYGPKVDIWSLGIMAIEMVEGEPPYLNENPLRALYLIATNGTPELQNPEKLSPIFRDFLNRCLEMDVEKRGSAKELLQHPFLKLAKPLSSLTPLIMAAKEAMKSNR

CCOc1cc(C(=O)N2CCC(N3CCN(C)CC3)CC2)ccc1Nc1ncc2c(n1)N(C1CCCC1)c1ccccc1C(=O)N2C [Compound 26]
% Ctrl, STK16 [1]: 99 % Ctrl | KINOMEscan: PAK2 [2]: 92 | % Ctrl, TRKC [3]: 90 % Ctrl

COc1cc(C(=O)N2CCC(N3CCN(C)CC3)CC2)ccc1Nc1ncc2c(n1)N1CCc3cccc(c31)C(=O)N2C [Compound 24]
% Ctrl, STK16 [1]: 50 % Ctrl | % Ctrl, TRKC [3]: 100 % Ctrl

COc1cc(C(=O)N2CCC(N3CCN(C)CC3)CC2)ccc1Nc1ncc2c(n1)N(C)c1ccccc1C(=O)N2C [15 (LRRK2-IN-1)]
% Ctrl, STK16 [1]: 62 % Ctrl | KINOMEscan: PAK2 [2]: 65 | % Ctrl, TRKC [3]: 100 % Ctrl

COc1cc(C(=O)N2CCC(N3CCN(C)CC3)CC2)ccc1Nc1ncc2c(n1)N(C1CCCC1)c1ccccc1C(=O)N2C [Compound 25, 11-cyclopentyl-2-((2-methoxy-4-(4-(4-methylpiperazin-1-yl)piperidine-1-carbonyl)phenyl)amino)-5-methyl-5H-benzo[e]pyrimido[5,4-b][1,4]diazepin-6(11H)-one]
% Ctrl, STK16 [1]: 75 % Ctrl | KINOMEscan: PAK2 [2]: 90 | % Ctrl, TRKC [3]: 100 % Ctrl
